Test results reported in patent publication US10988523B2, “Modified lipidated Relaxin B chain peptides and their therapeutic use” (Sanofi, priority 2018, dated 2021).
*1 amine or outer side, *2 acyl side, *3 side chain or, on linkers, in order; H or OH if unused. Where a SMILES comes first, the peptide text is derived from it. Side-chain parts run from the residue outwards. [ ]: non-standard residue; d: D form. The star is where a group is joined. PEG12 = NCCOCCOCCOCCOCCOCCOCCOCCOCCOCCOCCOCCOCCC(=O)O; αMeW = C[C@](N)(Cc1c[nH]c2ccccc12)C(=O)O; γGlu = O=C(O)[C@H](CCC(=O)[*:2])N[*:1]; 1Nal = N[C@@H](Cc1cccc2ccccc12)C(=O)O; Stearoyl = CCCCCCCCCCCCCCCCCC(=O)*; Palmitoyl = CCCCCCCCCCCCCCCC(=O)*; Myristoyl = CCCCCCCCCCCCCC(=O)*; αMeK = C[C@](N)(CCCCN)C(=O)O; Nle = CCCC[C@H](N)C(=O)O; AEEA = NCCOCCOCC(=O)O; Aib = CC(C)(N)C(=O)O

Molecular target: T1, RXFP1 (Homo sapiens, UniProt Q9HBX9)
T1 construct: OVCAR5 cells expressing endogenous RXFP1; endogenous in cells; host or cells: OVCAR5 cells
T1 sequence (Q9HBX9 1-757): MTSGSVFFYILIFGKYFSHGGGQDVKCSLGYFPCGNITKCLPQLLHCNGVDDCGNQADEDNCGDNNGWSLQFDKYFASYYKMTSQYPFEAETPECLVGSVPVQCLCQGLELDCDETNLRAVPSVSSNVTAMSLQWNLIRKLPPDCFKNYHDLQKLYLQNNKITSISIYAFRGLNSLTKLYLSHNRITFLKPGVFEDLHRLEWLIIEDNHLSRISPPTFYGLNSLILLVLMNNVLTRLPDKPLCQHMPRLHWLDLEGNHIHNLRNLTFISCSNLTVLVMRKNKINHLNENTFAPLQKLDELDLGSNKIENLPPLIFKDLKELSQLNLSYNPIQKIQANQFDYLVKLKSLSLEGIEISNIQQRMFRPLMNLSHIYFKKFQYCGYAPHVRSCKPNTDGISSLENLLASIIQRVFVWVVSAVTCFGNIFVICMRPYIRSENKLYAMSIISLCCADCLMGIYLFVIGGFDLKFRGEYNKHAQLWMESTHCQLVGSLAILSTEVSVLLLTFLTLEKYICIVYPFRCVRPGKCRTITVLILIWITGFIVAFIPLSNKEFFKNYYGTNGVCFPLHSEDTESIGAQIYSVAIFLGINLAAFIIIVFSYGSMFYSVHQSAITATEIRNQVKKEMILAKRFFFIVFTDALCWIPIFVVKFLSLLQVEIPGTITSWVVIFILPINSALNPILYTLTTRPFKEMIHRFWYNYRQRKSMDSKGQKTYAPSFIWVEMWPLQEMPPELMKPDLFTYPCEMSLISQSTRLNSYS
Assay: OVCAR5 cAMP assay (HTRF), RXFP1 agonist activity
Type: cell-based
Conditions: for EC50: OVCAR5 cells, cAMP HTRF, read-out: EC50 (nM), OVCAR 5 cells (cAMP); for Emax: OVCAR-5, maximal cAMP relative to H2-relaxin maximum (100%), read-out: EMax, OVCAR 5 cells (cAMP)
Outline: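 OVCAR5 cells (endogenous RXFP1) pretreated 40 min at 37° C with 1 mM IBMX, then exposed to peptides in serum-free medium for 30 min at 37° C. Lysate cAMP read by HTRF; EC50 from variable-slope sigmoidal fit; Emax as % of H2-relaxin maximal cAMP in same run.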

| Structure (SMILES) | EC50 [nM] | Emax [%] |
| --- | --- | --- |
| CCCCCCCCCCCCCCCCCC(=O)N[C@@H](CCC(=O)N[C@@H](CCC(=O)N[C@@H](CCC(=O)NCCOCCOCC(=O)NCCOCCOCC(=O)NCCOCCOCC(=O)NCCCC[C@H](NC(=O)[C@H](CCCCN)NC(=O)[C@H](CCCCN)NC(=O)[C@H](CCCNC(=N)N)NC(=O)C(C)(C)NC(=O)[C@H](CO)NC(=O)[C@H](Cc1c[nH]c2ccccc12)NC(=O)[C@@H](NC(=O)[C@H](CO)NC(=O)[C@H](CCCC)NC(=O)CNC(=O)[C@H](CCC(=O)O)NC(=O)C(C)(C)NC(=O)C(C)(C)NC(=O)[C@@H](NC(=O)[C@H](CCC(N)=O)NC(=O)[C@H](C)NC(=O)[C@H](CCCNC(=N)N)NC(=O)[C@@H](NC(=O)[C@H](CCCCN)NC(=O)[C@H](CCC(=O)O)NC(=O)[C@H](CCCNC(=N)N)NC(=O)CNC(=O)[C@H](CCC(=O)O)NC(=O)[C@H](CC(C)C)NC(C)=O)C(C)C)[C@@H](C)CC)[C@@H](C)O)C(N)=O)C(=O)O)C(=O)O)C(=O)O [compound 75] (Ac-LEGREKVRAQI[Aib][Aib]EG[Nle]STWS[Aib]RKKK([AEEA-AEEA-AEEA-γGlu-γGlu-γGlu-Stearoyl])-NH2) | 0.07 | 88 |
| CCCCCCCCCCCCCCCC(=O)N[C@@H](CCC(=O)N[C@@H](CCC(=O)N[C@@H](CCC(=O)N[C@@H](CCC(=O)NCCOCCOCC(=O)NCCOCCOCC(=O)NCCOCCOCC(=O)NCCOCCOCC(=O)NCCCC[C@H](NC(=O)[C@H](CCCCNC(C)=O)NC(=O)[C@H](CCCCN)NC(=O)[C@H](CCCNC(=N)N)NC(=O)C(C)(C)NC(=O)[C@H](CO)NC(=O)[C@H](Cc1ccccc1)NC(=O)[C@@H](NC(=O)[C@H](CO)NC(=O)[C@H](CCCC)NC(=O)CNC(=O)[C@H](CCC(=O)O)NC(=O)C(C)(C)NC(=O)C(C)(C)NC(=O)[C@@H](NC(=O)[C@H](CCCCNC(C)=O)NC(=O)[C@H](C)NC(=O)[C@H](CCCNC(=N)N)NC(=O)[C@@H](NC(=O)[C@H](CCCCN)NC(=O)[C@H](CCC(=O)O)NC(=O)[C@H](CCCNC(=N)N)NC(=O)CNC(=O)[C@H](CCC(=O)O)NC(=O)[C@H](CC(C)C)NC(C)=O)C(C)C)[C@@H](C)CC)[C@@H](C)O)C(N)=O)C(=O)O)C(=O)O)C(=O)O)C(=O)O [compound 147] (Ac-LEGREKVRAK(Ac)I[Aib][Aib]EG[Nle]STFS[Aib]RKK(Ac)K([AEEA-AEEA-AEEA-AEEA-γGlu-γGlu-γGlu-γGlu-Palmitoyl])-NH2) |  | 86 |
| CCCCCCCCCCCCCCCC(=O)N[C@@H](CCC(=O)N[C@@H](CCC(=O)N[C@@H](CCC(=O)N[C@@H](CCC(=O)NCCCC[C@H](NC(=O)COCCOCCNC(=O)COCCOCCNC(=O)COCCOCCNC(=O)[C@H](CCCCNC(C)=O)NC(=O)[C@H](CCCCN)NC(=O)[C@H](CCCNC(=N)N)NC(=O)[C@](C)(CCCCN)NC(=O)[C@H](CO)NC(=O)[C@](C)(Cc1c[nH]c2ccccc12)NC(=O)[C@@H](NC(=O)[C@H](CO)NC(=O)[C@H](CCCC)NC(=O)CNC(=O)[C@H](CCC(=O)O)NC(=O)C(C)(C)NC(=O)C(C)(C)NC(=O)[C@@H](NC(=O)[C@H](CCCCNC(C)=O)NC(=O)[C@H](C)NC(=O)[C@H](CCCNC(=N)N)NC(=O)[C@@H](NC(=O)[C@H](CCCCN)NC(=O)[C@H](CCC(=O)O)NC(=O)[C@H](CCCNC(=N)N)NC(=O)CNC(=O)[C@H](CCC(=O)O)NC(=O)[C@H](CC(C)C)NC(C)=O)C(C)C)[C@@H](C)CC)[C@@H](C)O)C(N)=O)C(=O)O)C(=O)O)C(=O)O)C(=O)O [compound 125] (Ac-LEGREKVRAK(Ac)I[Aib][Aib]EG[Nle]ST[αMeW]S[αMeK]RKK(Ac)[AEEA][AEEA][AEEA]K([γGlu-γGlu-γGlu-γGlu-Palmitoyl])-NH2) | 0.1 | 89 |
| CCCCCCCCCCCCCCCC(=O)N[C@@H](CCC(=O)N[C@@H](CCC(=O)N[C@@H](CCC(=O)NCCOCCOCC(=O)NCCOCCOCC(=O)NCCOCCOCC(=O)NCCOCCOCC(=O)NCCCC[C@H](NC(=O)[C@H](CCCCNC(C)=O)NC(=O)[C@H](CCCCN)NC(=O)[C@H](CCCNC(=N)N)NC(=O)C(C)(C)NC(=O)[C@H](CO)NC(=O)[C@H](Cc1ccccc1)NC(=O)[C@@H](NC(=O)[C@H](CO)NC(=O)[C@H](CCCC)NC(=O)CNC(=O)[C@H](CCC(=O)O)NC(=O)C(C)(C)NC(=O)C(C)(C)NC(=O)[C@@H](NC(=O)[C@H](CCCCNC(C)=O)NC(=O)[C@H](C)NC(=O)[C@H](CCCNC(=N)N)NC(=O)[C@@H](NC(=O)[C@H](CCCCN)NC(=O)[C@H](CCC(=O)O)NC(=O)[C@H](CCCNC(=N)N)NC(=O)CNC(=O)[C@H](CCC(=O)O)NC(=O)[C@H](CC(C)C)NC(C)=O)C(C)C)[C@@H](C)CC)[C@@H](C)O)C(N)=O)C(=O)O)C(=O)O)C(=O)O [compound 153] (Ac-LEGREKVRAK(Ac)I[Aib][Aib]EG[Nle]STFS[Aib]RKK(Ac)K([AEEA-AEEA-AEEA-AEEA-γGlu-γGlu-γGlu-Palmitoyl])-NH2) | 0.26 | 89 |
| CCCCCCCCCCCCCCCCCC(=O)N[C@@H](CCC(=O)N[C@@H](CCC(=O)N[C@@H](CCC(=O)NCCOCCOCC(=O)NCCOCCOCC(=O)NCCOCCOCC(=O)NCCCC[C@H](NC(=O)[C@H](CC(C)C)NC(=O)[C@H](CCCCN)NC(=O)[C@H](CCCNC(=N)N)NC(=O)C(C)(C)NC(=O)[C@H](CO)NC(=O)[C@H](Cc1cccc2ccccc12)NC(=O)[C@@H](NC(=O)[C@H](CO)NC(=O)[C@H](CCCC)NC(=O)CNC(=O)[C@H](CCC(=O)O)NC(=O)C(C)(C)NC(=O)C(C)(C)NC(=O)[C@@H](NC(=O)[C@H](CCCCNC(C)=O)NC(=O)[C@H](C)NC(=O)[C@H](CCCNC(=N)N)NC(=O)[C@@H](NC(=O)[C@H](CCCCN)NC(=O)[C@H](CCC(=O)O)NC(=O)[C@H](CCCNC(=N)N)NC(=O)CNC(=O)[C@H](CCC(=O)O)NC(=O)[C@H](CC(C)C)NC(C)=O)C(C)C)[C@@H](C)CC)[C@@H](C)O)C(N)=O)C(=O)O)C(=O)O)C(=O)O [compound 87] (Ac-LEGREKVRAK(Ac)I[Aib][Aib]EG[Nle]ST[1Nal]S[Aib]RKLK([AEEA-AEEA-AEEA-γGlu-γGlu-γGlu-Stearoyl])-NH2) |  | 71 |
| CCCCCCCCCCCCCCCCCC(=O)N[C@@H](CCC(=O)N[C@@H](CCC(=O)N[C@@H](CCC(=O)NCCCC[C@H](NC(=O)CCOCCOCCOCCOCCOCCOCCOCCOCCOCCOCCOCCOCCNC(=O)[C@H](CCCCNC(C)=O)NC(=O)[C@H](CCCCN)NC(=O)[C@H](CCCNC(=N)N)NC(=O)C(C)(C)NC(=O)[C@H](CO)NC(=O)[C@H](Cc1ccc(O)cc1)NC(=O)[C@@H](NC(=O)[C@H](CO)NC(=O)[C@H](CCCC)NC(=O)CNC(=O)[C@H](CCC(=O)O)NC(=O)C(C)(C)NC(=O)C(C)(C)NC(=O)[C@@H](NC(=O)[C@H](CCCCNC(C)=O)NC(=O)[C@H](C)NC(=O)[C@H](CCCNC(=N)N)NC(=O)[C@@H](NC(=O)[C@H](CCCCN)NC(=O)[C@H](CCC(=O)O)NC(=O)[C@H](CCCNC(=N)N)NC(=O)CNC(=O)[C@H](CCC(=O)O)NC(=O)[C@H](CC(C)C)NC(C)=O)C(C)C)[C@@H](C)CC)[C@@H](C)O)C(N)=O)C(=O)O)C(=O)O)C(=O)O [compound 46] (Ac-LEGREKVRAK(Ac)I[Aib][Aib]EG[Nle]STYS[Aib]RKK(Ac)[PEG12]K([γGlu-γGlu-γGlu-Stearoyl])-NH2) | 0.61 | 79 |
| CCCCCCCCCCCCCC(=O)N[C@@H](CCC(=O)N[C@@H](CCC(=O)N[C@@H](CCC(=O)N[C@@H](CCC(=O)NCCCC[C@H](NC(=O)COCCOCCNC(=O)COCCOCCNC(=O)COCCOCCNC(=O)COCCOCCNC(=O)[C@H](CCCCNC(C)=O)NC(=O)[C@H](C)NC(=O)[C@H](CCCNC(=N)N)NC(=O)[C@](C)(CCCCN)NC(=O)[C@H](CO)NC(=O)[C@H](Cc1ccccc1)NC(=O)[C@@H](NC(=O)[C@H](CO)NC(=O)[C@H](CCCC)NC(=O)CNC(=O)[C@H](CCC(=O)O)NC(=O)C(C)(C)NC(=O)C(C)(C)NC(=O)[C@@H](NC(=O)[C@H](CCCCNC(C)=O)NC(=O)[C@H](C)NC(=O)[C@H](CCCNC(=N)N)NC(=O)[C@@H](NC(=O)[C@H](CCCCN)NC(=O)[C@H](CCC(=O)O)NC(=O)[C@H](CCCNC(=N)N)NC(=O)CNC(=O)[C@H](CCC(=O)O)NC(=O)[C@H](CC(C)C)NC(C)=O)C(C)C)[C@@H](C)CC)[C@@H](C)O)C(N)=O)C(=O)O)C(=O)O)C(=O)O)C(=O)O [compound 172] (Ac-LEGREKVRAK(Ac)I[Aib][Aib]EG[Nle]STFS[αMeK]RAK(Ac)[AEEA][AEEA][AEEA][AEEA]K([γGlu-γGlu-γGlu-γGlu-Myristoyl])-NH2) | 0.56 | 95 |
